The values that follow come from publication PMC10403511, “DNA-encoded chemical libraries yield non-covalent and non-peptidic SARS-CoV-2 main protease inhibitors” (Communications Chemistry, 2023).

For the assay, the target named is T1, SARS-CoV-2 M^pro (Severe acute respiratory syndrome coronavirus 2, UniProt P0DTD1).
T1 construct: the gene for M^pro (ORF1ab residues 3264 to 3569, GenBank code: MN908947.3); Sumo fusion with M^pro cleavage site (SAVLQ↓SGFRK) (N, cleaved yes); 6xHis-tag behind PreScission site (SGVTFQ↓GP) (C); made in house; host or cells: E. coli BL21(DE3)
The experiment in a line: M^pro enzyme inhibition assay, proteolytic cleavage of fluorescent peptide reporter, Ki by Morrison equation. The following applies: for decrease of activity compared to CDD-1733: from Ki values. Format: biochemical. From the text: Hydrolysis of the fluorescent peptide was monitored at an emission wavelength of 460 nm with an excitation wavelength of 360 nm using a TECAN M200 plate reader. Initial hydrolysis rates of fluorescent peptide were plotted as a function of compound concentrations, and Ki values were obtained by fitting the data into the Morrison equation[32] with SE from triplicates.
inhibitors. […] The remaining activities (red dots) of Mpro towards fluorescent
peptide we re plotted as a function of compound concentrations and Ki values wa s calculated by fitting the da ta int o Morrison equation wit h standard error f romS6 […]

Setting [1] is: 25 nM Mpro with authentic termini (no His-tag), standard error from triplicates, Inactive: less than 50% inhibition with 25 µM compound, read-out: Mpro Ki.
Setting [2] is: Fig. 2, Suppl. Fig. 1, construct not given, Inactive: inhibited M^pro activity by less than 90% with 25 μM, read-out: Ki.
Setting [3] is: 25 nM Mpro with authentic termini (no His-tag), standard error from triplicates, Inactive: less than 50% inhibition with 25 µM compound.
The mark [4] stands for this setting: 25 nM Mpro-6-His, standard error from triplicates, Inactive: less than 50% inhibition with 25 µM compound in initial screening.
[5] abbreviates: Fig. 2, Suppl. Fig. 1, construct not given, Inactive: inhibited M^pro activity by less than 90% with 25 μM.

The term Ki denotes a measure of affinity in units of concentration, obtained from inhibition or displacement.

“Also recorded” adds a separate entry of the source. Read-outs that look alike come from different tables or passages of the source.

As for `CCC[C@H](NC(=O)c1cccc2nc(-c3cncc4ccccc34)n([C@H]3C[C@H](C(=O)NC)C3)c12)c1ccc(OC(F)F)cc1` [CDD-1780], the Ki runs as follows: under setting [1], 16 ± 2 nM; under setting [2], 14 nM.

With `CCC[C@H](NC(=O)c1cccc2nc(-c3cncc4ccccc34)n([C@H]3CC[C@H](C(=O)NC)C3)c12)c1ccc(C(F)(F)F)cc1` [CDD-1790], the Ki was determined as 620 nM (read-out: Ki) and 664 ± 66 nM (read-out: Mpro Ki).

Consider `CCC[C@H](NC(=O)c1cccc2nc(-c3cncc4ccccc34)n([C@H]3C[C@H](C(=O)NC)C3)c12)c1cccc(C(F)(F)F)c1` [CDD-1795], for which the “decrease of activity compared to CDD-1733” value is given as “approximately 2 fold”. Also, the Ki under setting [1] is 35 ± 5 nM. In addition, the Ki under setting [2] worked out at 29 nM.

As to `CCC[C@H](NC(=O)c1cccc2nc(-c3cncc4ccccc34)n(C(C)C)c12)c1ccc(C(F)(F)F)cc1` [CDD-1804], under setting [3], the “Mpro Ki” value is reported as “Inactive”. The “Mpro-His Ki” value under setting [4] is “Inactive”. The Ki entry under setting [5] is on record as “completely abolished; also recorded: greatly reduces potency”.

In the case of `CCC[C@H](NC(=O)c1cccc2nc(-c3cncc4ccccc34)n(C3CCC3)c12)c1ccc(C(F)(F)F)cc1` [CDD-1806], the “decrease of activity compared to CDD-1733” value is given as “more than 14 fold”. The Ki entry under setting [5] is “greatly reduces potency”.

For the compound `CCC[C@H](NC(=O)c1cccc2nc(-c3cncc4ccccc34)n(C3CCNCC3)c12)c1ccc(C(F)(F)F)cc1` [CDD-1818], the Ki is 1470 nM (read-out: Ki) and 1710 ± 128 nM (read-out: Mpro Ki).

As to `CNC(=O)[C@H]1C[C@H](n2c(-c3cncc4ccccc34)nc3cccc(C(=O)N[C@@H](C)c4ccc(C(F)(F)F)cc4)c32)C1` [CDD-1829], the Ki is 48 ± 5 nM under setting [1] and 46 nM under setting [2].

Turning to `CCC[C@H](NC(=O)c1cccc2nc(-c3cncc4ccccc34)n(CCCC(=O)NC)c12)c1ccc(C(F)(F)F)cc1` [CDD-1830], the Ki is, setting by setting: under setting [1], 6 ± 1 nM; (25 nM Mpro-6-His, standard error from triplicates, Inactive: less than 50% inhibition with 25 µM compound in initial screening, read-out: Mpro-His Ki) 6 ± 1 nM; under setting [2], 6 nM.

With `CCC[C@H](NC(=O)c1cccc2nc(-c3cccnc3)n([C@H]3C[C@H](C(=O)NC)C3)c12)c1ccc(C(F)(F)F)cc1` [CDD-1831], under setting [3], the “Mpro Ki” value was “Inactive”. Under setting [4], the “Mpro-His Ki” value is given as “Inactive”. Under setting [5], the Ki result was “total loss of activity; also recorded: inactive or exhibit greatly decreased potency”.

Turning to `CNC(=O)[C@H]1C[C@H](n2c(-c3cncc4ccccc34)nc3cccc(C(=O)N[C@@H](C)c4ccccc4)c32)C1` [CDD-1841], the Ki came to 571 nM (read-out: Ki) and 565 ± 55 nM (read-out: Mpro Ki).

`CNC(=O)[C@H]1C[C@H](n2c(-c3cncc4ccccc34)nc3cccc(C(=O)NC(C)C)c32)C1` [CDD-1842]: the “Mpro Ki” value under setting [3] is “Inactive”. Moreover, the “Mpro-His Ki” value under setting [4] was “Inactive”. Besides, under setting [5], the Ki entry was “completely inactive”.

For the compound `CCC[C@H](NC(=O)c1cccc2nc(-c3cncc4ccccc34)n([C@H]3C[C@H](C(=O)NC)C3)c12)c1ccccc1` [CDD-1843], the “Mpro Ki” value is given as “Inactive” and the “Mpro-His Ki” value is “Inactive”.

Consider `CNC(=O)CCCn1c(-c2ccc3cnccc3c2)nc2cccc(C(=O)N[C@@H](C)c3ccc4ccccc4c3)c21` [CDD-1884], for which the Ki entry is “inactive or exhibit greatly decreased potency”, the “Mpro Ki” value was “Inactive” and the “Mpro-His Ki” value is listed as “Inactive”.

Regarding `CNC(=O)CCCn1c(-c2cccc3ccccc23)nc2cccc(C(=O)N[C@@H](C)c3ccc4ccccc4c3)c21` [CDD-1885], the “Mpro Ki” value is given as “Inactive” and the “Mpro-His Ki” value is “Inactive”.

As to `CNC(=O)CCCn1c(-c2ccnc3ccccc23)nc2cccc(C(=O)N[C@@H](C)c3ccc4ccccc4c3)c21` [CDD-1906], the “Mpro Ki” value is “Inactive” and the “Mpro-His Ki” value is “Inactive”.

Turning to `CNC(=O)CCCn1c(-c2cnccc2C)nc2cccc(C(=O)N[C@@H](C)c3ccc4ccccc4c3)c21` [CDD-1924], the Ki (read-out: Mpro Ki) amounted to 426 ± 47 nM.

Regarding `CNC(=O)CCCn1c(-c2cncc3ccccc23)nc2cccc(C(=O)NCc3ccc4ccccc4c3)c21` [CDD-1925], the Ki (read-out: Ki) came to 51 nM and the Ki (read-out: Mpro Ki) came to 42 ± 5 nM.

Regarding `CNC(=O)CCCn1c(-c2ccc(N)nc2)nc2cccc(C(=O)N[C@@H](C)c3ccc4ccccc4c3)c21` [CDD-1926], the Ki result was “inactive or exhibit greatly decreased potency”, the “Mpro Ki” value is recorded as “Inactive” and the “Mpro-His Ki” value is “Inactive”.
